From patent publication US10336775B2 (Asceneuron SA, priority 2014, dated 2019)

Each molecule was assayed against His-Tagged hOGA (human O-GlcNAcase) (Homo sapiens (Human), UniProt O60502) (assay: Human O-GlcNAcase enzyme inhibition assay (Example B01)). Conditions: OGA IC50 (M), OGA enzyme inhibition assay; activity range classes defined in μM.
Type: biochemical

Chain of His-Tagged hOGA (human O-GlcNAcase) (O60502 whole entry): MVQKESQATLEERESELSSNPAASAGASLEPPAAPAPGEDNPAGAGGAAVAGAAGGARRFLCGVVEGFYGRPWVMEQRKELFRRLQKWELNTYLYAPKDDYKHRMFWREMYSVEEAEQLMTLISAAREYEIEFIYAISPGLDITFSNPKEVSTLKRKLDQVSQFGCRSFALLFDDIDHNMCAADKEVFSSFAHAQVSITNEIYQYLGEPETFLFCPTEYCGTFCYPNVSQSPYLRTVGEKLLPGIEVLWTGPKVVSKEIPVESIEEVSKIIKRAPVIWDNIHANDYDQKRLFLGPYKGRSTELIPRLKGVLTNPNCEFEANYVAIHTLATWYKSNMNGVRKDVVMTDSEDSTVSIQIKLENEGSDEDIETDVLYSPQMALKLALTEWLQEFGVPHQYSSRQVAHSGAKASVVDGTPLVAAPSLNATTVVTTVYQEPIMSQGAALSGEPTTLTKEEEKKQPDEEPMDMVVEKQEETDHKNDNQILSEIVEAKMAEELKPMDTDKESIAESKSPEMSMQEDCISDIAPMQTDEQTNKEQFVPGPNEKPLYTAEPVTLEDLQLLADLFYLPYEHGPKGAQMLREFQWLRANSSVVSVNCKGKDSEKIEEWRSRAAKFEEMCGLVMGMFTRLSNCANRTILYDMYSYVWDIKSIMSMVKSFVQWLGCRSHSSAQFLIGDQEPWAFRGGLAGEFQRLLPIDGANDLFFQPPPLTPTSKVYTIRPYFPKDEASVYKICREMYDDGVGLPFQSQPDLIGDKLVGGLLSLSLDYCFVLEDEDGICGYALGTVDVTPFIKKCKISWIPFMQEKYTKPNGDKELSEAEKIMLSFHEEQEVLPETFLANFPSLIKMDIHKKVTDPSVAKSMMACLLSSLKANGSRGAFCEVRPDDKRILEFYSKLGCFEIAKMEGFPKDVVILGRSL

Row | Compound | IC50
1 | CC(c1ccc2c(c1)OCO2)N1CCN(c2ncc(C(=O)N(C)C)s2)CC1 (single isomer, unassigned) [Example 61, (R)-2-(4-(1-(benzo[d][1,3]dioxol-5-yl)ethyl)piperazin-1-yl)-N,N-dimethylthiazole-5-carboxamide or (S)-2-(4-(1-(benzo[d][1,3]dioxol-5-yl)ethyl)piperazin-1-yl)-N,N-dimethylthiazole-5-carboxamide] | 5e-08 to 2e-07 M

Same assay, conditions: OGA enzyme inhibition assay; activity range classes defined in μM; read-out: OGA IC50

Row | Compound | IC50
2 | C[C@@H](c1ccc2c(c1)OCO2)N1CCN(c2ncc(C(C)(C)O)cn2)CC1 [Example 176, (S)-2-(2-(4-(1-(benzo[d][1,3]dioxol-5-yl)ethyl)piperazin-1-yl)pyrimidin-5-yl)propan-2-ol] | < 5e-08 M
3 | CC(c1ccc2c(c1)OCO2)N1CCN(c2nnc(NCc3ccc(Cl)cc3)s2)CC1 (racemic) [Example 111, 5-(4-(1-(benzo[d][1,3]dioxol-5-yl)ethyl)piperazin-1-yl)-N-(4-chlorobenzyl)-1,3,4-thiadiazol-2-amine] | 5e-08 to 2e-07 M
4 | C[C@@H](c1ccc2c(c1)OCO2)N1CCN(c2ccc(C(F)(F)F)cn2)CC1 [Example 166, (S)-1-(1-(benzo[d][1,3]dioxol-5-yl)ethyl)-4-(5-(trifluoromethyl)pyridin-2-yl)piperazine] | 5e-08 to 2e-07 M
5 | COc1cnc(N2CCN(C(C)c3ccc4nccnc4c3)CC2)nc1 (racemic) [Example 196] | 5e-08 to 2e-07 M
6 | CC(c1ccc2c(c1)OCO2)N1CCN(c2ccnc(Cl)n2)CC1 (racemic) [Example 40, 4-(4-(1-(Benzo[d][1,3]dioxol-5-yl)ethyl)piperazin-1-yl)-2-chloropyrimidine] | 5e-08 to 2e-07 M
7 | CC(=O)Nc1nnc(N2CCN(C(C)c3ccc4scnc4c3)CC2)s1 (racemic) [Example 114, N-(5-(4-(1-(benzo[d]thiazol-5-yl)ethyl)piperazin-1-yl)-1,3,4-thiadiazol-2-yl)acetamide] | < 5e-08 M
8 | CC(=O)Nc1nnc(N2CCN(C(C)c3ccc4sc(C)nc4c3)CC2)s1 (racemic) [Example 170, N-(5-(4-(1-(2-methylbenzo[d]thiazol-5-yl)ethyl)piperazin-1-yl)-1,3,4-thiadiazol-2-yl)acetamide] | < 5e-08 M
9 | CC(c1ccc2c(c1)OCO2)N1CCN(c2cnc(Cl)cn2)CC1 (racemic) [Example 25] | 5e-08 to 2e-07 M
10 | CC(c1ccc2c(c1)OCO2)N1CCN(c2ncc(CN3CCOCC3)s2)CC1 (racemic) [Example 79, 4-((2-(4-(1-(Benzo[d][1,3]dioxol-5-yl)ethyl)piperazin-1-yl)thiazol-5-yl)methyl)morpholine] | 5e-08 to 2e-07 M
11 | C[C@@H](c1ccc2c(c1)OCO2)N1CCN(c2nc3cnccc3s2)CC1 [Example 139, (S)-2-(4-(1-(benzo[d][1,3]dioxol-5-yl)ethyl)piperazin-1-yl)thiazolo[4,5-c]pyridine] | 5e-08 to 2e-07 M
12 | CNC(=O)c1ccc(N2CCN([C@@H](C)c3ccc4c(c3)OCO4)CC2)nc1 [Example 186, (S)-6-(4-(1-(benzo[d][1,3]dioxol-5-yl)ethyl)piperazin-1-yl)-N-methylnicotinamide] | < 5e-08 M
13 | CNC(=O)c1cnc(N2CCN(C(C)c3ccc4c(c3)OCCO4)CC2)s1 (racemic) [Example 109, 2-(4-(1-(2,3-dihydrobenzo[b][1,4]dioxin-6-yl)ethyl)piperazin-1-yl)-N-methylthiazole-5-carboxamide] | < 5e-08 M
14 | Cc1cnn(C2CCN(C(C)c3ccc4c(c3)OCO4)CC2)c1 (racemic) [Example 3, 1-(1-(benzo[d][1,3]dioxol-5-yl)ethyl)-4-(4-methyl-1H-pyrazol-1-yl)piperidine] | 1e-06 to 1e-05 M
15 | CCOC(=O)c1cnc(N2CCN(C(C)c3ccc4nccnc4c3)CC2)s1 (racemic) [Example 90, Ethyl-2-(4-(1-(quinoxalin-6-yl)ethyl)piperazin-1-yl)thiazole-5-carboxylate] | 2e-07 to 1e-06 M
16 | CC(c1ccc2c(c1)OCO2)N1CCN(c2cc(Cl)ncn2)CC1 (racemic) [Example 24, 4-(4-(1-(Benzo[d][1,3]dioxol-5-yl)ethyl)piperazin-1-yl)-6-chloropyrimidine] | 5e-08 to 2e-07 M
17 | C[C@@H](c1ccc2c(c1)OCO2)N1CCN(c2ccc(CO)cn2)CC1 [Example 185, (S)-(6-(4-(1-(benzo[d][1,3]dioxol-5-yl)ethyl)piperazin-1-yl)pyridin-3-yl)methanol] | < 5e-08 M
18 | CC(c1ccc2c(c1)OCO2)N1CCN(c2nc(-c3ccccc3)cs2)CC1 (racemic) [Example 5, 2-(4-(1-(Benzo[d][1,3]dioxol-5-yl)ethyl)piperazin-1-yl)-4-phenylthiazole] | 2e-07 to 1e-06 M
19 | CC(=O)N1CCc2nc(N3CCN([C@@H](C)c4ccc5c(c4)OCO5)CC3)sc2C1 [Example 184, (S)-1-(2-(4-(1-(benzo[d][1,3]dioxol-5-yl)ethyl)piperazin-1-yl)-6,7-dihydrothiazolo[5,4-c]pyridin-5(4H)-yl)ethan-1-one] | < 5e-08 M
20 | CC(c1ccc2c(c1)OCO2)N1CCN(c2ncc(N)cn2)CC1 (racemic) [Example 70, 2-(4-(1-(Benzo[d][1,3]dioxol-5-yl)ethyl)piperazin-1-yl)pyrimidin-5-amine] | 2e-07 to 1e-06 M
21 | CC(c1ccc2c(c1)OCO2)N1CCN(c2nc(C(=O)NC3CCCCC3)cs2)CC1 (racemic) [Example 33, 2-(4-(1-(Benzo[d][1,3]dioxol-5-yl)ethyl)piperazin-1-yl)-N-cyclohexylthiazole-4-carboxamide] | 2e-07 to 1e-06 M

Row | Compound | IC50
22 | CC(c1ccc2c(c1)CCO2)N1CCN(c2ncccn2)CC1 (racemic) [Example 53, 2-(4-(1-(2,3-dihydrobenzofuran-5-yl)ethyl)piperazin-1-yl)pyrimidine] | 2e-07 to 1e-06 M
23 | CC(C)NC(=O)c1cnc(N2CCN(C(C)c3ccc4c(c3)OCO4)CC2)s1 (racemic) [Example 43, 2-(4-(1-(Benzo[d][1,3]dioxol-5-yl)ethyl)piperazin-1-yl)-N-isopropylthiazole-5-carboxamide] | 5e-08 to 2e-07 M
24 | CC(c1ccc2c(c1)OCO2)N1CCN(c2nccs2)CC1 (racemic) [Example 7, 2-(4-(1-(Benzo[d][1,3]dioxol-5-yl)ethyl)piperazin-1-yl)thiazole] | 2e-07 to 1e-06 M
25 | CNC(=O)c1cnc(N2CCN(C(C)c3ccc4c(c3)OCO4)CC2)nc1 (racemic) [Example 98, 2-(4-(1-(Benzo[d][1,3]dioxol-5-yl)ethyl)piperazin-1-yl)-N-methylpyrimidine-5-carboxamide] | < 5e-08 M
26 | CC(c1ccc2c(c1)OCO2)N1CCN(c2ncc(C(=O)N3CCOCC3)s2)CC1 (racemic) [Example 67, (2-(4-(1-(Benzo[d][1,3]dioxol-5-yl)ethyl)piperazin-1-yl)thiazol-5-yl)(morpholino)methanone] | 5e-08 to 2e-07 M
27 | C[C@@H](c1ccc2c(c1)OCO2)N1CCN(c2ncc(C3(O)CCCCC3)cn2)CC1 [Example 180, (S)-1-(2-(4-(1-(benzo[d][1,3]dioxol-5-yl)ethyl)piperazin-1-yl)pyrimidin-5-yl)cyclohexan-1-ol] | < 5e-08 M
28 | CC(c1ccc2c(c1)OCO2)N1CCN(c2ccnc(N)n2)CC1 (racemic) [Example 46, 4-(4-(1-(Benzo[d][1,3]dioxol-5-yl)ethyl)piperazin-1-yl)pyrimidin-2-amine] | 5e-08 to 2e-07 M
29 | CC(c1ccc2c(c1)OCO2)N1CCN(c2ncc(Cl)cn2)CC1 (racemic) [Example 38] | 5e-08 to 2e-07 M
30 | CC(c1ccc2nccnc2c1)N1CCN(c2nccc(C(F)(F)F)n2)CC1 (racemic) [Example 94, 6-(1-(4-(4-(trifluoromethyl)pyrimidin-2-yl)piperazin-1-yl)ethyl)quinoxaline] | 2e-07 to 1e-06 M
31 | CC(=O)Nc1cnc(N2CCN(C(C)c3ccc4cc(Cl)cnc4c3)CC2)nc1 (racemic) [Example 125, N-(2-(4-(1-(3-chloroquinolin-7-yl)ethyl)piperazin-1-yl)pyrimidin-5-yl)acetamide] | 1e-06 to 1e-05 M
32 | CC(=O)Nc1cnc(N2CCN(C(C)c3ccc4c(c3)OCC4)CC2)nc1 (racemic) [Example 129, N-(2-(4-(1-(2,3-dihydrobenzofuran-6-yl)ethyl)piperazin-1-yl)pyrimidin-5-yl)acetamide] | < 5e-08 M
33 | CC(=O)Nc1nnc(N2CCN(C(C)c3ccc4nsnc4c3)CC2)s1 (racemic) [Example 123, N-(5-(4-(1-(benzo[c][1,2,5]thiadiazol-5-yl)ethyl)piperazin-1-yl)-1,3,4-thiadiazol-2-yl)acetamide] | < 5e-08 M
34 | CC(c1ccc2c(c1)OCO2)N1CCN(c2ccc(Cl)cn2)CC1 (racemic) [Example 20] | 2e-07 to 1e-06 M
35 | CC(O)c1cnc(N2CCN([C@@H](C)c3ccc4c(c3)OCO4)CC2)nc1 (single isomer, unassigned) [Example 197] | < 5e-08 M
36 | CC(=O)Nc1nnc(N2CCN(C(C)c3ccc(F)c(F)c3)CC2)s1 (racemic) [Example 76, N-(5-(4-(1-(3,4-difluorophenyl)ethyl)piperazin-1-yl)-1,3,4-thiadiazol-2-yl)acetamide] | 1e-06 to 1e-05 M
37 | CCC(=O)Nc1nnc(N2CCN(C(C)c3ccc4c(c3)OCO4)CC2)s1 (racemic) [Example 105, N-(5-(4-(1-(benzo[d][1,3]dioxol-5-yl)ethyl)piperazin-1-yl)-1,3,4-thiadiazol-2-yl)propionamide] | < 5e-08 M
38 | CC(=O)Nc1cnc(N2CCN(C(C)c3ccc4nccnc4c3)CC2)nc1 (racemic) [Example 93, N-(2-(4-(1-(quinoxalin-6-yl)ethyl)piperazin-1-yl)pyrimidin-5-yl)acetamide] | < 5e-08 M
39 | C[C@@H](c1ccc2c(c1)OCO2)N1CCN(c2ccc(Br)cn2)CC1 [Example 191, (S)-1-(1-(benzo[d][1,3]dioxol-5-yl)ethyl)-4-(5-bromopyridin-2-yl)piperazine] | 5e-08 to 2e-07 M
40 | CCCNc1nnc(N2CCN([C@@H](C)c3ccc4c(c3)OCO4)CC2)s1 [Example 142, (S)-5-(4-(1-(benzo[d][1,3]dioxol-5-yl)ethyl)piperazin-1-yl)-N-propyl-1,3,4-thiadiazol-2-amine] | 5e-08 to 2e-07 M

Same assay, conditions: measured according to Example B01

Row | Compound | OGA inhibitor activity (in words)
41 | C[C@@H](c1ccc2c(c1)OCO2)N1CCN(c2ncc(C(C)(C)O)cn2)CC1 [Example 176, (S)-2-(2-(4-(1-(benzo[d][1,3]dioxol-5-yl)ethyl)piperazin-1-yl)pyrimidin-5-yl)propan-2-ol] | very potent OGA inhibitors
42 | CC(=O)Nc1nnc(N2CCN(C(C)c3ccc4scnc4c3)CC2)s1 (racemic) [Example 114, N-(5-(4-(1-(benzo[d]thiazol-5-yl)ethyl)piperazin-1-yl)-1,3,4-thiadiazol-2-yl)acetamide] | very potent OGA inhibitors
43 | C[C@@H](c1ccc2c(c1)OCO2)N1CCN(c2ncc(C3(O)CCCCC3)cn2)CC1 [Example 180, (S)-1-(2-(4-(1-(benzo[d][1,3]dioxol-5-yl)ethyl)piperazin-1-yl)pyrimidin-5-yl)cyclohexan-1-ol] | very potent OGA inhibitors
44 | CC(=O)Nc1cnc(N2CCN(C(C)c3ccc4c(c3)OCC4)CC2)nc1 (racemic) [Example 129, N-(2-(4-(1-(2,3-dihydrobenzofuran-6-yl)ethyl)piperazin-1-yl)pyrimidin-5-yl)acetamide] | very potent OGA inhibitors
